In patent publication US20090202660A1, “Agents and Methods for Osteogenic Oxysterols Inhibition of Oxidative Stress on Osteogenic Cellular Differentiation” (The Regents of the University of California, priority 2005, published 2009):

Experiments:
[1] = test system: M2-10B4 marrow stromal cells; test: Matrix mineralization (45Ca incorporation assay, von Kossa staining); format: cell-based, mouse; settings: M2 cells in osteogenic medium, 10-14 days
Experimental: (§1) Von Kossa and oil red O staining—Matrix mineralization in cell monolayers was detected by silver nitrate staining as previously described. Oil red O staining for detection of adipocytes was performed as previously described.
^45Ca incorporation assay—Matrix mineralization in cell monolayers was quantified using the ^45Ca incorporation assay as previously described.
After 14 days, mineralization was identified by a von Kossa staining, which appears black. FIG. 3C is a depiction of von Kossa staining of M2 cells exposed to various conditions. […]

osteocalcin mRNA = test: Northern blotting for osteocalcin mRNA in M2 cells; format: cell-based, mouse; settings: M2 cells in osteogenic medium, up to 14 days
Experimental: RNA isolation and Northern blot analysis—Following treatment of cells under appropriate experimental conditions, total RNA was isolated using the RNA isolation kit from Stratagene (La Jolla, Calif., U.S.A.). Total RNA ([…]) was run on a 1% agarose/formaldehyde gel and transferred to Duralon-UV membranes (Strategene, Calif., U.S.A.) and cross-linked with UV light. The membranes were hybridized overnight at 60 degree C. with ^32P-labeled mouse osteocalcin cDNA probe, mouse lipoprotein lipase (LPL), mouse adipocyte protein 2 (aP2) PCR-generated probes, human 28S or 18S rRNA probes obtained from Geneka Biotechnology (Montreal, Quebec, Canada) and Maxim Biotech (San Francisco, Calif., U.S.A.), respectively. The PCR products were generated using primer sets synthesized by Invitrogen (Carlsbad, Calif., U.S.A.) with the following specifications: mouse aP2 gene (accession no. M13261); sense (75-95) 5′-[…]-3′, antisense (362-383) 5′-[…]-3′, generating a PCR product of 309 base pairs. Mouse LPL (accession no. XM—134193); sense (1038-1058) 5′-[…]-3′, antisense (1816-1836) 5′-[…]-3′, generating a PCR product of 799 base pairs. […] Following hybridization, the blots were washed twice at room temperature with 2×SSC+0.1% SDS, and then twice at 60 degree C. with 0.5×SSC+0.1% SDS, and exposed to X-ray film. The extent of gene induction was determined by densitometry.
After 4 and 8 days, total RNA from duplicate samples was isolated and analyzed for osteocalcin (Osc) and 28S rRNA expression by Northern blotting as described. FIG. 3E is a radiogram of Northern blotting for osteocalcin mRNA in M2 cells exposed to a control or combination of oxysterols for 4 or 8 days. FIG. 3F is a bar graph depicting the relative demsometric units of osteocalcin mRNA in M2 cells exposed to a control or combination of oxysterols for 4 or 8 days. Data from densitometric analysis of the Northern blot is shown in (F) as the average of duplicate samples, normalized to 28S rRNA.
RNA Isolation and Northern Blot Analysis—Total RNA was isolated using the RNA isolation kit from Stratagene (La Jolla, Calif., USA). Northern blotting and analysis of osteocalcin mRNA and 18S rRNA expression was performed as previously described (23).

M2 cells = test: Troglitazone-induced adipogenesis, oil Red O staining and adipocyte count; format: cell-based, mouse; settings: troglitazone 10 μM, oxysterols 10 μM, 8-10 days
Experimental: as §1
Test 1: M2 cells at 90% confluence were treated with vehicle (C), PPAR-γ activator, troglitazone 10 uM (Tro), alone or in combination with 10 μM oxysterols 20S-, 22R-, or 25S-hydroxycholesterol. After 8 days, adipocytes were identified by oil Red 0 staining and quantified by counting under a phase contrast microscope. FIG. 6A is a bar graph depicting the effect of oxysterols on reducing adipogenesis of MSC.
Test 2: (A) M2 cells at confluence were treated in RPMI containing 10% FBS with control vehicle or 10 μM troglitazone (Tro) in the absence or presence of 10 μM 20S or 22S oxysterols. After 10 days, adipocytes were visualized by oil Red O staining and quantified by light microscopy, shown in (B). […] (C) M2 cells were treated at confluence with 10 μM Tro, alone or in combination with 10 μM 20S oxysterol. After 10 days, total RNA was isolated and analyzed for lipoprotein lipase (LPL), adipocyte P2 gene (aP2) or 18S rRNA expression by Northern blotting as described (Ref). Data from densitometric analysis of the Northern blot is shown in (D) as the average of duplicate samples, normalized to 18S rRNA.

[2] = test system: lipoprotein lipase (LPL) and adipocyte P2 gene (aP2); test: Northern blotting for adipogenic genes in M2 cells; format: cell-based, mouse; settings: 10 μM Tro with 10 μM 20S, 10 days
Experimental: RNA isolation and Northern blot analysis—Following treatment of cells under appropriate experimental conditions, total RNA was isolated using the RNA isolation kit from Stratagene (La Jolla, Calif., U.S.A.). Total RNA ([…]) was run on a 1% agarose/formaldehyde gel and transferred to Duralon-UV membranes (Strategene, Calif., U.S.A.) and cross-linked with UV light. The membranes were hybridized overnight at 60 degree C. with ^32P-labeled mouse osteocalcin cDNA probe, mouse lipoprotein lipase (LPL), mouse adipocyte protein 2 (aP2) PCR-generated probes, human 28S or 18S rRNA probes obtained from Geneka Biotechnology (Montreal, Quebec, Canada) and Maxim Biotech (San Francisco, Calif., U.S.A.), respectively. […] The extent of gene induction was determined by densitometry.
Test 2: (A) M2 cells at confluence were treated in RPMI containing 10% FBS with control vehicle or 10 μM troglitazone (Tro) in the absence or presence of 10 μM 20S or 22S oxysterols. After 10 days, adipocytes were visualized by oil Red O staining and quantified by light microscopy, shown in (B). […] After 10 days, total RNA was isolated and analyzed for lipoprotein lipase (LPL), adipocyte P2 gene (aP2) or 18S rRNA expression by Northern blotting as described (Ref). […]

ERK1 and ERK2 = test: Western blot for native and phosphorylated ERK in M2 cells; format: cell-based, mouse; settings: 5 μM, 1, 4 or 8 hours
Experimental: Western blot analysis—After treatments, cells were lysed in lysis buffer, protein concentrations determined using the Bio-Rad protein assay (Hercules, Calif. U.S.A.), and SDS-PAGE performed as previously described. Probing for native and phosphorylated ERKs was performed as previously reported.
(A) M2 cells at confluence were pretreated for four hours with RPMI containing 1% FBS, followed by treatment with control vehicle or 5 μM 20S oxysterol for 1, 4, or 8 hours. Next total cell extracts were prepared and analyzed for levels of native or phosphorylated ERK (pERK) using specific antibodies as previously described. Data from a representative of four experiments are shown, each treatment shown in duplicate samples. (B) M2 cells at confluence were pretreated for 2 hours with control vehicle (C) or 20 μM PD98059 (PD) in osteogenic medium as previously described. Next, a combination of 22R and 20S oxysterols (RS, 5 μM each) were added to appropriate wells as indicated. After 10 days of incubation, matrix mineralization was quantified by the ^45Ca incorporation assay as previously described. […] (C) M2 cells at confluence were pretreated for 2 hours with 20 µM PD98059 (PD) in RPMI containing 5% FBS. […] After 10 days, adipocytes were visualized by oil Red O staining and quantified by light microscopy as previously described. […]

[3] = test system: M2-10B4 marrow stromal cells; test: Colorimetric alkaline phosphatase (ALP) activity assay on whole cell extracts
Experimental: Alkaline phosphatase activity assay: Colorimetric alkaline phosphatase (ALP) activity assay on whole cell extracts was performed as previously described.
Test 1: M2 cells at confluence were treated with control vehicle (C), or 10 µM oxysterols, in an osteogenic medium consisting of RPMI 1640 to which 10% fetal bovine serum (FBS), 50 µg/ml ascorbate and 3 mM beta-glycerophosphate (□GP) were added. After 3 days of incubation, alkaline phosphatase (ALP) activity was determined in cell homogenates by a colorimetric assay.
M2 cells at confluence were treated in osteogenic medium with control vehicle (C) or a combination of 22R and 20S oxysterols, at the indicated concentrations. ALP activity was measured after 3 days as described above.
Test 2: M2 cells were grown in RPMI medium containing 10% fetal bovine serum (FBS). At confluence, the cells were treated in RPMI containing 5% FBS plus ascorbate at 50 μg/ml and β-glycerophosphate at 3 mM to induce osteoblastic differentiation. Adipogenic differentiation was induced by treating the cells in growth medium plus 10˜M troglitazone. A vehicle (C) or oxysterol treatment was applied to cells in a variety of doses (in μM): 20S-Hydroxycholesterol, 25-Hydroxycholesterol, 22R-Hydroxycholesterol; 22S-Hydroxycholesterol; 7-ketocholesterol. Cells were always treated at 90% confluence. After 4 days, alkaline phosphatase activity was determined in whole cell lysates and normalized to protein. Alternatively, MSC cultures were prepared and treated with oxysterols as described above. Cells were treated at 90% confluence with the combination of 22R-Hydroxycholesterol and 20S-Hydroxycholesterol, each at 5 μM, for 4 to 96 hours. The oxysterols where removed and fresh media without oxysterols was added for a total duration of 96 hours. Alkaline phosphatase activity was measured in whole cell extracts and normalized to protein.
Cells were treated with the oxysterols (5 μM) for 4 days after which they were collected and analyzed by colorimetric assay for alkaline phosphatase activity. Results from a representative experiment are shown as the average of quadruplicate determination ±SD.

## CC(C)CCC[C@](C)(O)[C@H]1CC[C@H]2[C@@H]3CC=C4C[C@@H](O)CC[C@]4(C)[C@H]3CC[C@@]21C [20S-hydroxycholesterol]
[1]
  mineralization: unable to induce
Osteocalcin mRNA
  osteocalcin gene expression: unable to induce
M2 cells
  inhibition of adipogenesis: inhibited adipogenesis
[2]
  expression of the adipogenic genes LPL and aP2: inhibition of the expression
ERK1 and ERK2
  activation of ERK1 and ERK2: sustained activation
[3]; M2 cells in osteogenic medium, oxysterols 0.5-10 μM, 3-4 days
  alkaline phosphatase activity (induction): induced alkaline phosphatase activity
[3]; M2 cells, ligands used at 10 μM, control 18±2, ±SD
  alkaline phosphatase activity: 140±12 activity units/mg protein
